# Laboratory results published in patent US10793892B2, “Method for detecting the presence of expanded spectrum β-lactamase-producing bacteria in a sample” (INSERM (INSTITUT NATIONAL DE LA SANTE ET DE LA RECHERCHE …, priority 2011, dated 2020).
# Columns and labels:
# E. coli = test: Susceptibility testing, MIC by Etest; type: cell-based, Escherichia coli
# Description: (§1) Susceptibility testing was performed by determining MIC values using the Etest® (AB bioMérieux; Solna, Sweden) on Mueller-Hinton agar plates at 37° C. and results were recorded according to US guidelines (CLSI), as updated in 2012 (2). The breakpoints for cefotaxime are susceptible (S)≤1 and resistant (R)≥4 μg/ml, and for ceftazidime S≤4 and R≥16 μg/ml.
# S. enterica = test: Susceptibility testing, MIC by Etest; type: cell-based, Salmonella enterica
# Description: as §1
# K. pneumoniae = test: Susceptibility testing, MIC by Etest; type: cell-based, Klebsiella pneumoniae
# Description: as §1
# E. cloacae = test: Susceptibility testing, MIC by Etest; type: cell-based, Enterobacter cloacae
# Description: as §1
# C. freundii = test: Susceptibility testing, MIC by Etest; type: cell-based, Citrobacter freundii
# Description: as §1
# P. mirabilis = test: Susceptibility testing, MIC by Etest; type: cell-based, Proteus mirabilis
# Description: as §1
# E. aerogenes = test: Susceptibility testing, MIC by Etest; type: cell-based, Enterobacter aerogenes
# Description: as §1
# P. stuartii = test: Susceptibility testing, MIC by Etest; type: cell-based, Providencia stuartii; conditions: P. stuartii TEM-24, n=1
# Description: as §1
# K. oxytoca = test: Susceptibility testing, MIC by Etest; type: cell-based, Klebsiella oxytoca; conditions: K. oxytoca Wild-type penicillinase, n=1
# Description: as §1
# M. morganii = test: Susceptibility testing, MIC by Etest; type: cell-based, Morganella morganii; conditions: M. morganii Wild-type, chromosome-encoded cephalosporinase, n=2
# Description: as §1
# C. brakii = test: Susceptibility testing, MIC by Etest; type: cell-based; conditions: C. brakii Wild-type, chromosome-encoded cephalosporinase, n=1
# Description: as §1
# E. sakazakii = test: Susceptibility testing, MIC by Etest; type: cell-based; conditions: overexpressed chromosome-encoded cephalosporinase, n=1
# Description: as §1
# S. ficaria = test: Susceptibility testing, MIC by Etest; type: cell-based; conditions: S. ficaria Wild-type, chromosome-encoded cephalosporinase, n=1
# Description: as §1
# S. marcescens = test: Susceptibility testing, MIC by Etest; type: cell-based, Serratia marcescens; conditions: S. marcescens Wild-type, chromosome-encoded cephalosporinase, n=2
# Description: as §1
# Enterobacteriaceae = type: biochemical; conditions: all CTX-M producers (n=147); tazobactam added to cefotaxime well
# Description: Strains were isolated on Mueller-Hinton agar (Biorad, Marnes-la-Coquette, France) and incubated at 37° C. for 16 h to 24 h before performing the NDP rapid ESBL test as follows. One calibrated inoculated loop (10 μl) of the tested strain was resuspended in 150 μl of 20 mM Tris-HCl lysis buffer previously distributed in Microbead tubes (Ultraclean Microbial DNA isolation kit Bead Tubes, MO BIO Laboratories, Carlsbad, USA). Mechanical lysis of bacteria was performed by strong agitation of Microbead tubes using a vortex adapter (MO BIO Laboratories) for 30 min at room temperature. This bacterial suspension was centrifuged at 10,000×g at room temperature for 5 min. Thirty μl of the supernatant was mixed in a well of a 96-well tray with 100 μl of a 1 ml solution made of 3 mg of purified cefotaxime sodium salt (Sigma-Aldrich, Saint-Quentin-Fallavier, France) in a pH 7.8 phenol red solution. […] The phenol red solution was made by taking 2 ml of a concentrated pH 8 phenol solution (made from a mixture of phenol red 0.5% in distilled water) to which 16.6 ml of distilled water was added. The pH value was then adjusted to a 7.8 value by adding drops of a 1 N NaOH solution. Mixture of the phenol red solution and the enzymatic suspension being tested was incubated at 37° C. for 30 min. Similarly, culture extracts were analyzed in wells containing cefotaxime and tazobactam (4 mg/ml). […]
smiles,measurement,setting,value
"CC(C)(O/N=C(\C(=O)N[C@@H]1C(=O)N2C(C(=O)[O-])=C(C[n+]3ccccc3)CS[C@H]12)c1csc(N)n1)C(=O)O [CAZ, ceftazidime]",MICs range,"E. coli; E. coli ACC-1, n=1, first line",>32 µg/mL
same,MICs range,"E. coli; E. coli ACC-1, n=1, second line",>32 µg/mL
same,MICs range,"E. coli; E. coli CMY-2, n=1",>32 µg/mL
same,MICs range,"E. coli; E. coli CTX-M-1, n=16",0.5 to 2 µg/mL
same,MICs range,"E. coli; E. coli CTX-M-2, n=3",1.5 to 4 µg/mL
same,MICs range,"E. coli; E. coli CTX-M-3, n=1",4 µg/mL
same,MICs range,"E. coli; E. coli CTX-M-9, n=1",0.19 µg/mL
same,MICs range,"E. coli; E. coli CTX-M-14, n=15",0.5 to 4 µg/mL
same,MICs range,"E. coli; E. coli CTX-M-15, n=46",0.5 to 24 µg/mL
same,MICs range,"E. coli; E. coli CTX-M-27, n=6",0.5 to 4 µg/mL
same,MICs range,"E. coli; E. coli CTX-M-28, n=1",8 µg/mL
same,MICs range,"E. coli; E. coli CTX-M-32, n=1",6 µg/mL
same,MICs range,"E. coli; E. coli CTX-M-97, n=1",2 µg/mL
same,MICs range,"E. coli; E. coli DHA-1, n=1",1 µg/mL
same,MICs range,"E. coli; E. coli SHV-2a, n=3",2 to 4 µg/mL
same,MICs range,"E. coli; E. coli SHV-3, n=1",>32 µg/mL
same,MICs range,"E. coli; E. coli SHV-12, n=1",8 µg/mL
same,MICs range,"E. coli; E. coli TEM-1 penicillinase, n=5",0.09 to 0.12 µg/mL
same,MICs range,"E. coli; E. coli TEM-12, n=1",8 µg/mL
same,MICs range,"E. coli; E. coli TEM-29, n=2",4 µg/mL
same,MICs range,"E. coli; E. coli TEM-133, n=1",12 µg/mL
same,MICs range,"E. coli; E. coli VEB-1, n=1",>32 µg/mL
same,MICs range,"E. coli; E. coli Wild-type, no resistance, n=5",0.05 to 0.19 µg/mL
same,MICs range,"S. enterica; S. enterica CTX-M-1, n=1",0.75 µg/mL
same,MICs range,"S. enterica; S. enterica Wild-type, no resistance, n=1",0.19 µg/mL
same,MICs range,"K. pneumoniae; K. pneumoniae CTX-M-3, n=1",1.5 µg/mL
same,MICs range,"K. pneumoniae; K. pneumoniae CTX-M-14, n=3",0.5 to 6 µg/mL
same,MICs range,"K. pneumoniae; K. pneumoniae DHA-1, n=1",>32 µg/mL
same,MICs range,"K. pneumoniae; K. pneumoniae DHA-2, n=1",>32 µg/mL
same,MICs range,"K. pneumoniae; K. pneumoniae GES-1, n=1",4 µg/mL
same,MICs range,"K. pneumoniae; K. pneumoniae SHV-2a, n=2",1 to 4 µg/mL
same,MICs range,"K. pneumoniae; K. pneumoniae SHV-2a, n=4",2 to 4 µg/mL
same,MICs range,"K. pneumoniae; K. pneumoniae SHV-5, n=2",16 to 32 µg/mL
same,MICs range,"K. pneumoniae; K. pneumoniae SHV-12, n=1",8 µg/mL
same,MICs range,"K. pneumoniae; K. pneumoniae SHV-12, n=2",16 to 32 µg/mL
same,MICs range,"K. pneumoniae; K. pneumoniae SHV-28, n=3",>32 µg/mL
same,MICs range,"K. pneumoniae; K. pneumoniae TEM-52, n=2",>32 µg/mL
same,MICs range,"K. pneumoniae; K. pneumoniae Wild-type penicillinase, n=2",0.03 µg/mL
same,MICs range,"E. cloacae; E. cloacae CTX-M-14, n=1",8 µg/mL
same,MICs range,"E. cloacae; E. cloacae CTX-M-15, n=17",2 to 16 µg/mL
same,MICs range,"E. cloacae; E. cloacae GES-5, n=1",>32 µg/mL
same,MICs range,"E. cloacae; E. cloacae PER-1, n=1",>32 µg/mL
same,MICs range,"E. cloacae; E. cloacae SHV-5, n=1",>32 µg/mL
same,MICs range,"E. cloacae; E. cloacae TEM-3, n=2",>16 µg/mL
same,MICs range,"E. cloacae; E. cloacae VEB-1, n=1",>32 µg/mL
same,MICs range,"E. cloacae; E. cloacae Wild-type, chromosome-encoded cephalosporinase, n=5",0.12 to 0.38 µg/mL
same,MICs range,"E. cloacae; E. cloacae, overexpressed chromosome-encoded cephalosporinase, n=2",>32 µg/mL
same,MICs range,"E. cloacae; E. cloacae, overexpressed chromosome-encoded cephalosporinase, n=3",>32 µg/mL
same,MICs range,"C. freundii; C. freundii TEM-3, n=1",>16 µg/mL
same,MICs range,"C. freundii; C. freundii Wild-type, chromosome-encoded cephalosporinase, n=1",0.25 µg/mL
same,MICs range,"P. mirabilis; P. mirabilis ACC-1, n=1",>32 µg/mL
same,MICs range,"P. mirabilis; P. mirabilis CTX-M-14, n=1",0.75 µg/mL
same,MICs range,"P. mirabilis; P. mirabilis CTX-M-15, n=1",8 µg/mL
same,MICs range,"P. mirabilis; P. mirabilis PER-1, n=1",>32 µg/mL
same,MICs range,"P. mirabilis; P. mirabilis TEM-21, n=1",4 µg/mL
same,MICs range,"P. mirabilis; P. mirabilis TEM-52, n=1",16 µg/mL
same,MICs range,"E. aerogenes; E. aerogenes TEM-121, n=1",>32 µg/mL
same,MICs range,"E. aerogenes; E. aerogenes Wild-type, chromosome-encoded cephalosporinase, n=1",0.25 µg/mL
same,MICs range,P. stuartii,8 µg/mL
same,MICs range,K. oxytoca,0.06 µg/mL
same,MICs range,M. morganii,0.09 to 1 µg/mL
same,MICs range,C. brakii,0.25 µg/mL
same,MICs range,E. sakazakii,>32 µg/mL
same,MICs range,S. ficaria,0.09 µg/mL
same,MICs range,S. marcescens,0.09 µg/mL
C[C@]1(Cn2ccnn2)[C@H](C(=O)O)N2C(=O)C[C@H]2S1(=O)=O [tazobactam],color of the wells,Enterobacteriaceae,remained red
